Measurements as given in article PMC4871512, “Drug-Based Lead Discovery: The Novel Ablative Antiretroviral Profile of Deferiprone in HIV-1-Infected Cells and in HIV-Infected Treatment-Naive Subjects of a Double-Blind, Placebo-Controlled, Randomized Exploratory Trial” (PLoS ONE, 2016).
Entries after “also recorded” stand apart in the source; their conditions may differ.

How the values were obtained:
[1] = system: HIV-1 clinical isolate in PBMCs; assay: HIV-1 RNA copy number (Amplicor HIV-1 Monitor) in supernatant of isolate-infected PBMC cultures; format: cell-based; settings: for viral breakthrough during monotherapy: one week to one month
Experimental: Cell-free supernatants were used for p24 and HIV-1 RNA measurements. p24 core antigen in the supernatant was quantified by ELISA (Retrotek HIV-1 p24®; ZeptoMetrix Corp.; Buffalo, NY). HIV-1 RNA copy number in the supernatant of PBMC cultures and in plasma of trial subjects enrolled in the exploratory deferiprone trial was determined with a PCR-based and FDA-approved assay (Amplicor HIV-1 Monitor®; Roche Diagnostics Corp.; Indianapolis, IN). For clinical samples, the assay was used per the Standard Specimen Processing Procedure (sensitivity limit 400 copies/ml); for cell culture samples, the assay was used in both the Standard Specimen Processing and the UltraSensitive Specimen Processing Procedure (sensitivity limit 50 copies/ml). If not specified further, the term “log10” designates the amount of HIV-1 RNA in the dimensions [log10 / ml]. The Roche Amplicor HIV-1 DNA Test (Roche Diagnostics Corp.; Indianapolis, IN) was used for detection of HIV-1 DNA with the primer pair SK431/462, which amplifies a highly conserved region of the gag genome of HIV-1 subtype B DNA. Results are shown per the assay’s optical readings of a chromogenic reaction that relates absorbance at 450 nm to the HIV-1 DNA copy number and is calibrated by assay-internal copy controls (A450 < 0.350, HIV-1 DNA absent; A450 ≥ 3.0, HIV-1 DNA present in excess of 20 copies; A450 between 0.350 and 3.0, HIV-1 DNA copy number per copy controls). Apoptotic DNA fragmentation was quantified flow-cytometrically, using a terminal deoxynucleotide transferase dUTP nick end-labeling (TUNEL) assay (APO-BRDU™; Phoenix Flow Systems; San Diego, CA). All experiments and assays were performed at least in duplicate.
The antiretroviral activity of deferiprone was tested in primary cultures of PBMCs, infected in vitro with clinical isolate or mock-infected with clinical isolate-identical cell- and virus-free medium as described. Briefly, to approximate the bi-compartmental mode of HIV-1 infection in vivo, which comprises a cell-generative compartment that provides non-infected but HIV-1 susceptible cells, and an HIV-generative compartment in which they become infected, the cultures were replenished as described with freshly obtained uninfected primary cells and medium at regular intervals, assuring identical cell number in both the treated and control cultures by computerized trypan blue exclusion analysis (Vi-CELL™; Beckman Coulter, Miami, FL); deferiprone concentrations were adjusted as indicated. This model allowed for months-long monitoring of HIV-1 parameters in productively infected cultures.

HIV-1 DNA = HIV-1 DNA (Roche Amplicor HIV-1 DNA Test) in isolate-infected primary cell cultures; format: cell-based; settings: 200 μM deferiprone
Experimental: Cell-free supernatants were used for p24 and HIV-1 RNA measurements. p24 core antigen in the supernatant was quantified by ELISA (Retrotek HIV-1 p24®; ZeptoMetrix Corp.; Buffalo, NY). HIV-1 RNA copy number in the supernatant of PBMC cultures and in plasma of trial subjects enrolled in the exploratory deferiprone trial was determined with a PCR-based and FDA-approved assay (Amplicor HIV-1 Monitor®; Roche Diagnostics Corp.; Indianapolis, IN). For clinical samples, the assay was used per the Standard Specimen Processing Procedure (sensitivity limit 400 copies/ml); for cell culture samples, the assay was used in both the Standard Specimen Processing and the UltraSensitive Specimen Processing Procedure (sensitivity limit 50 copies/ml). If not specified further, the term “log10” designates the amount of HIV-1 RNA in the dimensions [log10 / ml]. […] Results are shown per the assay’s optical readings of a chromogenic reaction that relates absorbance at 450 nm to the HIV-1 DNA copy number and is calibrated by assay-internal copy controls (A450 < 0.350, HIV-1 DNA absent; A450 ≥ 3.0, HIV-1 DNA present in excess of 20 copies; A450 between 0.350 and 3.0, HIV-1 DNA copy number per copy controls). Apoptotic DNA fragmentation was quantified flow-cytometrically, using a terminal deoxynucleotide transferase dUTP nick end-labeling (TUNEL) assay (APO-BRDU™; Phoenix Flow Systems; San Diego, CA). […]

[2] = after withdrawal of 100 μM deferiprone

SMILES: Cc1c(O)c(=O)ccn1C [deferiprone, 3-hydroxy-1,2-dimethylpyridin-4-one]
- HIV-1 RNA decrease below the pre-treatment level of ≥10^6 copies/ml ([1]; 100 μM deferiprone, on-drug): one order of magnitude
- HIV-1 RNA new steady state ([1]; 100 μM deferiprone, on-drug): ~10^5 copies/ml
- viral breakthrough during monotherapy ([1]; 100 μM deferiprone, up to 35 days): did not elicit viral breakthrough; also recorded: did not allow viral breakthrough
- viral breakthrough during monotherapy ([1]; 200 μM (supra-threshold) deferiprone, up to 35 days / 5 weeks): did not allow viral breakthrough; also recorded: did not elicit viral breakthrough; also recorded: neither allowed breakthrough
- time to reach HIV-1 RNA ≤10^3 copies/ml ([1]; 200 μM deferiprone): 2–4 weeks
- HIV-1 RNA decrease below its initial range ([1]; 200 μM deferiprone (Fig 1B)): at least three orders of magnitude
- HIV-1 RNA level reached on-drug ([1]; 200 μM deferiprone, depending on combination of viral isolate and PBMCs): ≤ 10^3 copies/ml
- decline of HIV-1 RNA production ([1]; 200 μM deferiprone, repeated experiments): 3 log
- off-drug period in which HIV-1 RNA production failed to resume ([1]; after 200 μM deferiprone, replenished with fresh CD4+ lymphocytes (Fig 1)): at least 10 days
- post-treatment period to reacquire the original level of ≥10^6 copies/ml [1, 2]: about 5 days
- rate of HIV-1 RNA rebound to the pre-treatment range [1, 2]: +0.24 log10/ml/day
- viral copy number ([1]; below 100 μM deferiprone): only marginally affected
- HIV-1 RNA reduction relative to untreated cultures ([1]; off-drug after 200 μM deferiprone, apparently stable): ~ 4 log
- decline of HIV-1 DNA (HIV-1 DNA): reached the lower limit of detectability
- final A450 readings of the HIV-1 DNA test (HIV-1 DNA; 10 days off-drug): negative for the continued presence of HIV-1 DNA
